Results published in patent US20110152236A1 (SANOFI-AVENTIS, priority 2008, published 2011).

What was measured:
human CB1 receptor = biological target: T1, human CB1 receptor (Homo sapiens, UniProt P21554); experiment: intracellular cyclic AMP test in U373MG cells (HTRF cAMP Dynamic Kit); type: cell-based; details: U373MG cells naturally expressing the human CB1 receptor; intracellular cyclic AMP; read-out: IC50
T1 construct: U373MG cells naturally expressing the human CB1 receptor; endogenous in cells; host or cells: U373MG cells
Method: The compounds according to the invention were the subject of pharmacological tests for determining the activity with respect to human cannabinoid CB1-type receptors. The efficacy of the compounds of formula (I) was determined in a functional test which measures cannabinoid CB1 receptor activity (intracellular cyclic AMP test). The test for detecting intracellular cyclic AMP in U373MG cells naturally expressing the human CB1 receptor was carried out as described in the following reference: Bouaboula et al., 1995, J. Biol. Chem. 270:13973-13980. The HTRF cAMP Dynamic Kit from CisBio was used to quantify the intracellular cyclic AMP. In this test, the IC50 values are between 0.001 μM and 2 μM.

cannabinoid CB1 receptor [1] = biological target: T2, cannabinoid CB1 receptor (Mus musculus, UniProt P47746); experiment: model of hypothermia induced by cannabinoid CB1 receptor agonist racemic CP55,940 in mice; type: in vivo; details: 3 mg/kg po, hypothermia induced by CP55,940 1.25 mg/kg
T2 construct: from tissue; host or cells: whole animal (mice; male CD1 mice in the gastrointestinal transit model)
Method: Other tests consisting in measuring the in vivo activity of the compounds of the invention were carried out. The antagonist activity of said compounds was shown by means of the model of hypothermia induced by a cannabinoid CB1 receptor agonist (racemic CP55,940 (1RS,3RS,4RS)-3-[hydroxy-2-(1,1-dimethylheptyl)phenyl]-4-(3-hydroxypropypcyclohexan-1-ol) at a dose of 1.25 mg/kg, in mice, according to the method described by R. G. Pertwee in Marijuana 84, Harvey D. J. eds, Oxford IRL Press, 263-277 (1985).

cannabinoid CB1 receptor [2] = biological target: T2, cannabinoid CB1 receptor; experiment: model of inhibition of gastrointestinal transit induced by racemic CP55,940 in mice; type: in vivo; details: 1 mg/kg per os; 3 hours after administration of the product; CP55,940 0.15 mg/kg ip; male CD1 mice
Method: The antagonistic activity of the compounds was also shown by means of the model of inhibition of gastrointestinal transit induced by racemic CP55,940 (1RS,3RS,4RS-3-[hydroxy-2-(1,1-dimethylheptyl)phenyl]-4-(3-hydroxypropyl)cyclohexan-1-ol) in mice, according to the method described by Rinaldi-Carmona et al., J. Pharmacol, Exp. Ther. 2004, 310, 905-914. Briefly, male CD1 mice receive the test product per os 30 minutes or 2 hours before administration of the racemic CP55,940 agonist (1RS,3RS,4RS-3-[hydroxy-2-(1,1-dimethylheptyl)phenyl]-4-(3-hydroxypropyl)cyclohexan-1-ol) (0.15 mg/kg ip in 10% Cremophor). After a further 30 minutes, the animals receive a charcoal bolus po. Thirty minutes later, the animals are euthanized (CO2/O2) and the intestine is dissected. The progression of the charcoal bolus in the intestine is expressed as percentage of the total length of the intestine.

T2 sequence (P47746 whole entry): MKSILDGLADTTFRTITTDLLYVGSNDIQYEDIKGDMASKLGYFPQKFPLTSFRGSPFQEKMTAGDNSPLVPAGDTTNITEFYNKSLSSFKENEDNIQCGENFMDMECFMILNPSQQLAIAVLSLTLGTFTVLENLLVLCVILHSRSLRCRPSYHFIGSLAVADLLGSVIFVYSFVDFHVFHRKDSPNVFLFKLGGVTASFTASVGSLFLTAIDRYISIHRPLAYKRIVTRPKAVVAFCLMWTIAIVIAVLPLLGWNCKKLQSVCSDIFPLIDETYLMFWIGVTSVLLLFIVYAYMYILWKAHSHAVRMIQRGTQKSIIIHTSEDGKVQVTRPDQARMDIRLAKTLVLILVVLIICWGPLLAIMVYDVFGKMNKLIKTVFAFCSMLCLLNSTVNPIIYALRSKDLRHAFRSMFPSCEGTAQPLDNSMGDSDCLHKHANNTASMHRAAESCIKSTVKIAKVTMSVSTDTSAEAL
T1 sequence (P21554 whole entry): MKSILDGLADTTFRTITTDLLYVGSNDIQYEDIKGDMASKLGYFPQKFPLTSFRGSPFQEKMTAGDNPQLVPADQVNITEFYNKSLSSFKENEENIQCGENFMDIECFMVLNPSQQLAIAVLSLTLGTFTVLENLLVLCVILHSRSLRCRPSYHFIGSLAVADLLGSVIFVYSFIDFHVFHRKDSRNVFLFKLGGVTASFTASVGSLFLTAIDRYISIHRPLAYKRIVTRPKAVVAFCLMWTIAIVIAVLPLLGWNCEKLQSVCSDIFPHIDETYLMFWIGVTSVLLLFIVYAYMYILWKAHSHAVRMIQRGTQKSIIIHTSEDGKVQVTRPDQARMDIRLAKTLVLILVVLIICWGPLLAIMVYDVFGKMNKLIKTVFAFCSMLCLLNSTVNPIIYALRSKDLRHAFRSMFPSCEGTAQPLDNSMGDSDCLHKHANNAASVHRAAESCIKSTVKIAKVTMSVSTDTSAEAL

IC50 (human CB1 receptor) [nM] | percentage inhibition (cannabinoid CB1 receptor [1]) [%] | percentages of inhibition (cannabinoid CB1 receptor [2]) [%] | melting point [°C] | SMILES
6 | 28 | 82 | 218 | CS(=O)(=O)N(c1cccc(C(=O)Nc2ccon2)c1)C1CN(C(c2ccc(Cl)cc2)c2ccc(Cl)cc2)C1 [Compound 5, 3-[{1-[bis(4-chlorophenyl)methyl]azetidin-3-yl}(methylsulphonyl)amino]-N-(isoxazol-3-yl)-benzamide]
– | 32 | 68 | 202 | CS(=O)(=O)N(c1cccc(C(=O)Nc2ccccn2)c1)C1CN(C(c2ccc(Cl)cc2)c2ccc(Cl)cc2)C1 [Compound 7, 3-[{1-[Bis(4-chlorophenyl)methyl]azetidin-3-yl}(methylsulphonyl)amino]-N-(pyridin-2-yl)benzamide]
